Results as given in article PMC9403976, “Elucidating the path to Plasmodium prolyl-tRNA synthetase inhibitors that overcome halofuginone resistance” (Nature Communications, 2022).
Values joined by “and” are separate entries in the source; they are usually repeats but may differ in a detail not shown here. Equal values may be shown once. Read-outs that look alike come from different tables or passages of the source.

Assays:
P. falciparum Dd2-2D4 = assay: P. falciparum asexual blood stage (ABS) growth assay, SYBR Green, 72 h, wild-type parasites; assay type: cell-based, Plasmodium falciparum; settings: Plasmodium falciparum, DD2; SI Fig 16b; values on -log scale; read-out: ABS - Dd2-2D4 (converted)
HsProRS = HsProRS (Homo sapiens, UniProt P07814); assay: TR-FRET ligand displacement assay with tracer MAT379 (CoraFluor-1-Halo and anti-His6 antibody formats); assay type: binding; design: made in house; host or cells: E. coli SoluBL-21; settings: for normalized TR-FRET signal (dose-response replicates): SI Fig 17a
HsProRS, sequence (P07814 996-1512): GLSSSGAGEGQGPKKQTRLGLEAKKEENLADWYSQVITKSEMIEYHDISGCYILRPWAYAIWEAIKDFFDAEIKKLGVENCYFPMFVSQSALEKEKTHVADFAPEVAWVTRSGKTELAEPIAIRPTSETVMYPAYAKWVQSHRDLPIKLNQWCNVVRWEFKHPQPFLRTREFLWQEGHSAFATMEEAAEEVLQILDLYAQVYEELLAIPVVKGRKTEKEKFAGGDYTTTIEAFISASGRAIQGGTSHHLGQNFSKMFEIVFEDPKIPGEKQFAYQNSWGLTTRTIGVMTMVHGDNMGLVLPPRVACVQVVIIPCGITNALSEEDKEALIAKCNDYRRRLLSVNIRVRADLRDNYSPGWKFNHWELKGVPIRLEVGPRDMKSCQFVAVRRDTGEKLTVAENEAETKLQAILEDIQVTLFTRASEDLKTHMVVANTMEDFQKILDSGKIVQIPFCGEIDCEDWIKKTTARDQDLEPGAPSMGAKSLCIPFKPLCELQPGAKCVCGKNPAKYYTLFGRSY

[1] = tested on: HFGR-I P. falciparum (elevated proline homeostasis and PfcProRS^L482H); assay: P. falciparum ABS growth assay, SYBR Green, 72 h, HFGR-I parasites; assay type: cell-based, Plasmodium falciparum; settings: HFGR-I
Procedure, shortened: (§1)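 Dd2-derived P. falciparum lines (HFGR-I, halofuginone-induced) at 1% parasitemia and 1% hematocrit in RPMI + 0.5% Albumax were exposed to compounds in triplicate dose-response for 72 h. Growth was read as SYBR Green 1 fluorescence, with 10 μM dihydroartemisinin as kill control and compound-free wells as growth control.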

PfcProRS = molecular target: T1, PfcProRS (Plasmodium falciparum, UniProt Q8I5R7); assay type: binding; settings: for Normalized response, dose-response replicates (SI Fig 14): replicates 1-3, listed as MAT345 (30)
T1 construct: made in house; host or cells: E. coli SoluBL-21
T1 sequence (Q8I5R7 249-746): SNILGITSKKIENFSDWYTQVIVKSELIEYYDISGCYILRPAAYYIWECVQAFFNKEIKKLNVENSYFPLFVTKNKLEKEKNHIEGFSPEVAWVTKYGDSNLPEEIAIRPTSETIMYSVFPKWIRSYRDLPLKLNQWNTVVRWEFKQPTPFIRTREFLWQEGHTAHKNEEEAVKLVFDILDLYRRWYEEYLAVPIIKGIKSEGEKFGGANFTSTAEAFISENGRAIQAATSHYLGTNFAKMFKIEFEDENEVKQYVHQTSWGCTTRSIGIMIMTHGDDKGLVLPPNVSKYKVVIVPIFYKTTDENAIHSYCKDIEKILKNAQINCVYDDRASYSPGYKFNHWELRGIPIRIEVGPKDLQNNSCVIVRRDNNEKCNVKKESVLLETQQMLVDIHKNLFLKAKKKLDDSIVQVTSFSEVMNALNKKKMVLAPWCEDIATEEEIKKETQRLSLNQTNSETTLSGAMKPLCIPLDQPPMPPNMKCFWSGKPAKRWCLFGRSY

[2] = tested on: halofuginone-induced P. falciparum (elevated proline homeostasis); assay: P. falciparum ABS growth assay, SYBR Green, 72 h, halofuginone-induced parasites; assay type: cell-based, Plasmodium falciparum; settings: for parasite growth, dose-response point: Halofuginone-Induced (HFG-Induced)
Procedure, shortened: as §1

[3] = Log[inhibitor] (M) -5.000, series r16-r27

## O=C(NC1Cc2ccccc2C1)c1nccnc1NC(=O)N1CCC(CNC(=O)[C@@H]2CCCN2)CC1 [MAT345]
P. falciparum Dd2-2D4
  EC50: 0.249 µM
HsProRS; HsProRS (KD [nM]) + proline, 100 μM proline, 250 nM MAT379
  Kd: 282 nM
HsProRS; HsProRS - best Kd, SI Fig 16a, values on -log scale
  Kd: 140 nM
HsProRS; Log[inhibitor] (M) -5.642
  normalised signal, dose-response point (Fig 4d): 3.24E-02 and 2.70E-02 and 2.05E-02
  normalized TR-FRET signal (dose-response replicates): 9.59E-02 and 6.70E-02 and 9.33E-02
HsProRS; Log[inhibitor] (M) -6.244
  normalised signal, dose-response point (Fig 4d): 1.89E-01 and 2.26E-01 and 2.85E-01
  normalized TR-FRET signal (dose-response replicates): 2.09E-01 and 2.42E-01 and 2.50E-01
HsProRS; Log[inhibitor] (M) -6.555
  normalised signal, dose-response point (Fig 4d): 3.68E-01 and 3.01E-01 and 3.10E-01
  normalized TR-FRET signal (dose-response replicates): 3.66E-01 and 3.52E-01 and 3.76E-01
HsProRS; Log[inhibitor] (M) -6.837
  normalised signal, dose-response point (Fig 4d): 6.02E-01 and 6.04E-01 and 4.91E-01
  normalized TR-FRET signal (dose-response replicates): 5.21E-01 and 5.37E-01 and 4.85E-01
HsProRS; Log[inhibitor] (M) -7.149
  normalised signal, dose-response point (Fig 4d): 6.76E-01 and 6.99E-01 and 6.39E-01
  normalized TR-FRET signal (dose-response replicates): 7.07E-01 and 6.82E-01 and 6.73E-01
HsProRS; Log[inhibitor] (M) -7.447
  normalised signal, dose-response point (Fig 4d): 8.48E-01 and 8.28E-01 and 9.00E-01
  normalized TR-FRET signal (dose-response replicates): 7.81E-01 and 8.42E-01 and 8.20E-01
HsProRS; Log[inhibitor] (M) -7.755
  normalised signal, dose-response point (Fig 4d): 9.14E-01 and 8.69E-01 and 1.05E+00
  normalized TR-FRET signal (dose-response replicates): 9.07E-01 and 9.27E-01 and 8.91E-01
HsProRS; Log[inhibitor] (M) -8.041
  normalised signal, dose-response point (Fig 4d): 9.90E-01 and 1.01E+00 and 9.87E-01
  normalized TR-FRET signal (dose-response replicates): 9.57E-01 and 9.29E-01 and 9.81E-01
HsProRS; Log[inhibitor] (M) -8.372
  normalised signal, dose-response point (Fig 4d): 1.02E+00 and 1.03E+00 and 9.36E-01
  normalized TR-FRET signal (dose-response replicates): 9.20E-01 and 9.69E-01 and 9.64E-01
HsProRS; Log[inhibitor] (M) -8.615
  normalised signal, dose-response point (Fig 4d): 9.70E-01 and 1.01E+00 and 1.11E+00
  normalized TR-FRET signal (dose-response replicates): 9.77E-01 and 1.00E+00 and 1.02E+00
HsProRS; Log[inhibitor] (M) -8.916
  normalised signal, dose-response point (Fig 4d): 9.07E-01 and 1.05E+00 and 9.01E-01
  normalized TR-FRET signal (dose-response replicates): 9.89E-01 and 9.48E-01 and 9.78E-01
HsProRS; Log[inhibitor] (M) -9.217
  normalised signal, dose-response point (Fig 4d): 9.78E-01 and 9.88E-01 and 9.92E-01
  normalized TR-FRET signal (dose-response replicates): 1.04E+00 (2×) and 1.05E+00
HsProRS; Log[inhibitor] (M) -5.041
  normalized TR-FRET signal (dose-response replicates): 4.56E-02 and 1.07E-02 and 1.68E-02
HsProRS; Log[inhibitor] (M) -5.342
  normalized TR-FRET signal (dose-response replicates): 5.17E-02 and 5.07E-02 and 8.15E-02
HsProRS; Log[inhibitor] (M) -5.943
  normalized TR-FRET signal (dose-response replicates): 1.49E-01 and 1.16E-01 and 1.17E-01
[1]; [3]
  parasite growth, dose-response point: 34 and 31 and 27
[1]; Log[inhibitor] (M) -5.408
  parasite growth, dose-response point: 80 and 82 and 78
[1]; Log[inhibitor] (M) -5.816
  parasite growth, dose-response point: 93 and 92 and 94
[1]; Log[inhibitor] (M) -6.222
  parasite growth, dose-response point: 97 and 95
[1]; Log[inhibitor] (M) -6.638
  parasite growth, dose-response point: 101 and 98 and 100
[1]; Log[inhibitor] (M) -7.046
  parasite growth, dose-response point: 98 and 100
[1]; Log[inhibitor] (M) -7.450
  parasite growth, dose-response point: 89 and 95 and 94
[1]; Log[inhibitor] (M) -7.854
  parasite growth, dose-response point: 93 and 91 and 94
[1]; Log[inhibitor] (M) -8.260
  parasite growth, dose-response point: 90 and 93 and 96
[1]; Log[inhibitor] (M) -8.699
  parasite growth, dose-response point: 97 and 94 and 92
[1]; Log[inhibitor] (M) -9.000
  parasite growth, dose-response point: 97 and 96 and 95
[1]; Log[inhibitor] (M) -9.488
  parasite growth, dose-response point: 95 and 102 and 96
PfcProRS; Log[inhibitor] (M) -5.041
  Normalized response, dose-response replicates (SI Fig 14): 4.37E-03 and 8.51E-02 and 8.45E-02
PfcProRS; Log[inhibitor] (M) -5.342
  Normalized response, dose-response replicates (SI Fig 14): 1.11E-01 and 8.97E-02 and 2.09E-01
PfcProRS; Log[inhibitor] (M) -5.642
  Normalized response, dose-response replicates (SI Fig 14): 2.13E-01 and 1.76E-01 and 2.03E-01
PfcProRS; Log[inhibitor] (M) -5.943
  Normalized response, dose-response replicates (SI Fig 14): 2.11E-01 and 3.53E-01 and 2.89E-01
PfcProRS; Log[inhibitor] (M) -6.244
  Normalized response, dose-response replicates (SI Fig 14): 5.69E-01 and 4.73E-01 and 4.91E-01
PfcProRS; Log[inhibitor] (M) -6.555
  Normalized response, dose-response replicates (SI Fig 14): 6.49E-01 and 6.64E-01 and 6.15E-01
PfcProRS; Log[inhibitor] (M) -6.837
  Normalized response, dose-response replicates (SI Fig 14): 7.67E-01 and 7.12E-01 and 8.75E-01
PfcProRS; Log[inhibitor] (M) -7.149
  Normalized response, dose-response replicates (SI Fig 14): 8.93E-01 and 9.71E-01 and 9.69E-01
PfcProRS; Log[inhibitor] (M) -7.447
  Normalized response, dose-response replicates (SI Fig 14): 1.04E+00 and 1.05E+00 and 9.75E-01
PfcProRS; Log[inhibitor] (M) -7.755
  Normalized response, dose-response replicates (SI Fig 14): 9.28E-01 and 9.14E-01 and 8.72E-01
PfcProRS; Log[inhibitor] (M) -8.041
  Normalized response, dose-response replicates (SI Fig 14): 1.06E+00 and 9.79E-01 and 1.02E+00
PfcProRS; Log[inhibitor] (M) -8.372
  Normalized response, dose-response replicates (SI Fig 14): 9.49E-01 and 9.57E-01 and 1.06E+00
PfcProRS; Log[inhibitor] (M) -8.615
  Normalized response, dose-response replicates (SI Fig 14): 1.07E+00 and 9.05E-01 and 1.02E+00
PfcProRS; Log[inhibitor] (M) -8.916
  Normalized response, dose-response replicates (SI Fig 14): 1.03E+00 and 9.82E-01 and 1.08E+00
PfcProRS; Log[inhibitor] (M) -9.217
  Normalized response, dose-response replicates (SI Fig 14): 9.85E-01 and 1.06E+00 and 9.97E-01
PfcProRS; SI Fig 16a, values on -log scale
  PfcProRS -- best Kd: 7.445
[2]; [3]
  parasite growth, dose-response point: 31 and 33
[2]; Log[inhibitor] (M) -5.408
  parasite growth, dose-response point: 83 and 82 and 78
[2]; Log[inhibitor] (M) -5.816
  parasite growth, dose-response point: 97 and 93 and 100
[2]; Log[inhibitor] (M) -6.222
  parasite growth, dose-response point: 102 and 100
[2]; Log[inhibitor] (M) -6.638
  parasite growth, dose-response point: 103 and 100 and 98
[2]; Log[inhibitor] (M) -7.046
  parasite growth, dose-response point: 102 and 103
[2]; Log[inhibitor] (M) -7.450
  parasite growth, dose-response point: 91 and 97
[2]; Log[inhibitor] (M) -7.854
  parasite growth, dose-response point: 96 and 99
[2]; Log[inhibitor] (M) -8.260
  parasite growth, dose-response point: 97 and 101
[2]; Log[inhibitor] (M) -8.699
  parasite growth, dose-response point: 95 and 97 and 96
[2]; Log[inhibitor] (M) -9.000
  parasite growth, dose-response point: 98 and 96
[2]; Log[inhibitor] (M) -9.488
  parasite growth, dose-response point: 97 and 99
[2]; vs wild-type Dd2-2D4
  fold decreased activity in halofuginone-induced and HFGR-I parasites: 20-to-40 fold
